# In patent US20260265239A1, “CRYSTAL FORM OF 2,6-PIPERIDINEDIONE COMPOUND, AND PREPARATION METHOD THEREFOR AND USE THEREOF” (ZHANGZHOU PIEN TZE HUANG PHARMACEUTICAL CO., LTD., priority 2023, published 2026):
# What was measured:
# [1] = Solid stability test under accelerated conditions; format: physicochemical
# Description: Samples were taken for testing at the 1st, 2nd, and 3rd months, and the test results were compared with the initial test results at day 0.
# [2] = Stability in solvents: suspension stirring at room temperature, XRPD; format: physicochemical; details: acetone, tetrahydrofuran, 1,4-dioxane, methanol, ethanol, isopropanol, water and mixed solvents with water
# Experimental: (§1) • Instrument model: PANalytacal X-ray Powder Diffractometer • Test method: Approximately 10 to 20 mg of the sample is used for XRPD detection.
# (§2) The detailed XRPD parameters are as follows: • X-ray tube: Cu, kα, (λ=1.540598 Å, λ=1.544426 Å). • X-ray tube voltage: 45 kV, X-ray tube current: 40 mA • Divergence slit: ⅛° • Scan mode: continuous • Scanning range (°2Theta): 3-40 • Scanning time per step (s): 46.7 • Scanning step size (°2Theta): […] • Test duration: approximately 5 min
# The resulting suspensions were magnetically stirred at room temperature (1000 rpm) for 3 days, then centrifuged to collect the solids, which were subjected to XRPD testing.
# [3] = Solid stability test under long-term conditions; format: physicochemical
# Description: Samples were taken for testing at the 1st and 2nd months, and the test results were compared with the initial test results at day 0.
# [4] = Hygroscopicity study by dynamic vapor sorption (DVS); format: physicochemical
# Experimental: • Instrument model: DVS Intrinsic Plus Dynamic Vapor Sorption Analyzer from SMS (Surface Measurement Systems) • Test conditions: The sample (10 to 20 mg) is placed in a DVS sample pan for testing.
# The detailed DVS parameters are as follows: • Temperature: 25° C. • Equilibrium: dm/dt=0.002%/min (minimum: 10 min, maximum: 180 min) • Drying: 120 min at 0% RH • RH (%) test steps: 10% • RH (%) test step range: 0%-95%-0%
# The hygroscopicity evaluation is classified as follows:
# • DVS Intrinsic Plus Dynamic Vapor Sorption Analyzer from SMS (Surface Measurement Systems).
# [5] = Pressure (mechanical) stability, XRPD; format: physicochemical; details: 350 MPa
# Experimental: as §1, §2
# The sample in the mold was compressed under a pressure of 350 MPa. The solid was collected for XRPD characterization.
# [6] = Pharmacokinetic evaluation in beagle dogs; format: in vivo; details: Intragastric administration, 5 mg/kg, listed as Crystal Form A of Compound of Formula (I)
# Description: Male beagle dogs were selected as the experimental animals in this study. The LC/MS/MS method was employed to quantitatively determine the plasma drug concentrations at different time points after intravenous injection or intragastric administration of the test compound, aiming to evaluate the pharmacokinetic characteristics of the compound of the present disclosure in beagle dogs.
# Beagle dogs (male, 7 to 10 kg, Beijing Mars Biotechnology Co., Ltd.).
# A solution of the test compound was slowly injected intravenously into beagle dogs (fed) via the peripheral vein (vehicle: 5% DMSO/10% Solutol/85% H2O), or administered intragastrically to beagle dogs (fed). For intravenous administration, 0.5 mL of blood was collected from the peripheral vein at 0.083, 0.25, 0.5, 1, 2, 4, 6, 8, and 24 h after administration, placed in EDTA-2K anticoagulant tubes, and centrifuged at 3200 g for 10 minutes at 2 to 8° C. to separate the supernatant. For intragastric administration, 0.5 mL of blood was collected from the peripheral vein at 0.083, 0.25, 0.5, 1, 2, 4, 6, 8, and 24 h after administration, placed in EDTA-2K anticoagulant tubes, and centrifuged at 3200 g for 10 minutes at 2 to 8° C. to separate the supernatant. Plasma drug concentrations were determined by the LC-MS/MS method, and relevant pharmacokinetic parameters were calculated using Phoenix WinNonlin 6.3 or 8.3.5 pharmacokinetic software with non-compartmental model linear-log trapezoidal method.
# [7] = Solid stability test under high temperature, high humidity and strong light exposure; format: physicochemical
# Experimental: Samples placed under high-temperature conditions were examined in an electric blast drying oven, while samples placed under high-humidity conditions were examined in a comprehensive drug stability test chamber. Sampling and testing were conducted on the 5th, 10th, and 30th days, and the test results were compared with the initial test results on day 0. Samples placed under strong light exposure conditions were left open, and sampling and testing were performed on the 5th and 10th days, with the test results compared to the initial test results on day 0.
# [8] = Stability in solvents: anti-solvent addition, XRPD; format: physicochemical; details: anti-solvent Water
# Experimental: as §1, §2
# While stirring (1000 rpm), the anti-solvent listed in the table below was added dropwise to the clear solution until solids precipitated, or until the total volume of anti-solvent reached 10 mL. Samples without precipitation were stirred in suspension at 5° C., while clear samples were transferred to −20° C. for suspension stirring. If still clear, the samples were transferred to room temperature for volatilization. The precipitated solids were isolated and subjected to XRPD testing.
# [9] = 40° C./75% Relative Humidity, Sealed + Desiccant, 1 month
# [10] = 40° C./75% Relative Humidity, Sealed + Desiccant, 2 month
# [11] = 40° C./75% Relative Humidity, Sealed + Desiccant, 3 month
# [12] = 25° C./60% Relative Humidity, Sealed + Desiccant, 1 month
# [13] = 25° C./60% Relative Humidity, Sealed + Desiccant, 2 month
# [14] = High Humidity (Room Temperature/Relative Humidity: 92.5%, Open), Day 5
# [15] = High Humidity (Room Temperature/Relative Humidity: 92.5%, Open), Day 10
# [16] = High Temperature (60° C., Open), Day 5
# [17] = High Temperature (60° C., Open), Day 10
# [18] = Strong Light Exposure (5000 ± 500 Lux, 90 μw/cm^2, Open), Day 10
# [19] = Strong Light Exposure test, Day 10 (Light Exposure Control)
compound,measurement,setting,value
O=C1CCC(c2noc3ccc4c(NC(=O)CN5CCN(C[C@H]6CC[C@H](n7cc(NC(=O)c8coc(-c9ccnc(NCC%10CC%10)c9)n8)c(C(F)F)n7)CC6)CC5)cccc4c23)C(=O)N1 (stereo partly shown),Content,[1]; [9],99.3%
same,Total Impurities,[1]; [9],2.7%
same,Content,[1]; [10],99.5%
same,Total Impurities,[1]; [10],2.7%
same,Content,[1]; [11],99.1%
same,Total Impurities,[1]; [11],2.7%
same,Content,[1]; Day 0,100.0%
same,Total Impurities,[1]; Day 0,2.4%
same,stability (conclusion),[1]; accelerated conditions of 40° C./75% relative humidity,good stability
same,stability in solvents (conclusion),[2],good stability
same,Content,[3]; [12],99.5%
same,Total Impurities,[3]; [12],2.8%
same,Content,[3]; [13],99.2%
same,Total Impurities,[3]; [13],2.9%
same,Content,[3]; Day 0,100.0%
same,Total Impurities,[3]; Day 0,2.4%
same,stability (conclusion),[3]; long-term conditions of 25° C./60% relative humidity,good stability
same,crystal form before and after DVS,[4],no change in crystal form
same,ΔW (hygroscopic weight gain),"[4]; DVS, 25° C. and 80% RH",3.536%
same,stability under compression mold pressure (conclusion),[5],good stability
same,Area Under the Drug-Time Curve (0-inf),[6],8.18 µM·h
same,Peak Concentration,[6],0.70 µM
same,Time to Peak Concentration,[6],5.00 h
same,Content,[7]; Day 0,100.0%
same,Total Impurities,[7]; Day 0,2.4%
same,Content,[7]; [14],99.7%
same,Total Impurities,[7]; [14],2.4%
same,Content,[7]; [15],100.1%
same,Total Impurities,[7]; [15],2.5%
same,Content,[7]; [16],102.8%
same,Total Impurities,[7]; [16],2.5%
same,Content,[7]; [17],102.5%
same,Total Impurities,[7]; [17],2.5%
same,Content,[7]; [18],102.3%
same,Total Impurities,[7]; [18],2.6%
same,Content,[7]; [19],101.5%
same,Total Impurities,[7]; [19],2.4%
same,stability (conclusion),"[7]; high temperature, high humidity, and strong light exposure conditions",good stability
same,XRPD Results Anti-Solvent Addition,[8]; solvent Dimethyl sulfoxide,Amorphous
same,XRPD Results Anti-Solvent Addition,[8]; solvent N-Methylpyrrolidone,Amorphous
